Counter-ions that a name gives are not always drawn.
Target: Alpha-Synuclein Protofibril binding to purified human brain membranes (Homo sapiens, UniProt P37840)
Assay: Inhibition of protofibrillar alpha-synuclein binding to purified human brain cell membranes (ELISA)
Settings: Alpha-Synuclein/Membrane Activity (IC-50), alpha-synuclein protofibrils
Experimental: Purified human brain cell membranes were prepared by differential centrifugation as follows. Five grams of frozen human brain postmortem tissue (obtained from University of Kentucky Alzheimer's Disease Center Tissue Bank) was homogenized in 50 ml HEPES-Buffered sucrose (0.32M sucrose, 4 mM HEPES pH7.4, protease inhibitors) with a motor driven glass-teflon homogenizer. After removing nuclear and cell debris by centrifugation of homogenates at 1,000×g for 10 min at 4 degree Celsius, post-nuclear supernatant was centrifuged at 100,000×g for 30 minutes to yield the crude membrane pellet. Crude membrane pellet was re-suspended in 0.32M sucrose, then centrifuged again at 100,000×g for 30 minutes to yield washed membrane pellet. Membrane pellet was resuspended in sterile PBS (pH7.4), quickly frozen, and kept in aliquots at −80 degrees Celsius. This preparation contains human brain cell membranes. Protein concentration was measured with BCA protein assay kit (Pierce Cat. No. 23227). Purified brain membranes were diluted to 0.01 mg/ml in PBS (pH 7.4) and then added to a 96 well polystyrene ELISA plate (NUNC Cat. No. 449824; 100 μl per well). Plates were incubated Over Night (ON) at 4 degrees Celsius. Following the incubation, the plate was washed consecutively, by immersion, with de-ionized water and PBS (pH 7.4). The ELISA plate was then blocked with nonfat milk (2%, 200 μl per well) for 2 hours at Room Temperature (RT). Following blocking, the plate was washed with de-ionized water then PBS (pH 7.4). GBAPs were dissolved and diluted in PBS (pH 6.5, supplemented with 0.1% BSA) at desired concentrations, added to the ELISA plates coated with brain membranes (100 μl per well) and incubated for 2 hours at RT with gentle shaking. Following incubation, the plate was washed with de-ionized water and three times with PBS (pH 6.5) plus Tween. Bound GBAP was detected by a monoclonal antibody specific for that GBAP, followed by incubation with secondary antibody conjugated to horseradish peroxidase (HRP). Antibody was diluted in PBS (pH6.5 supplemented with 1% BSA). Following each incubation with antibody, the plate was washed with de-ionized water and three times with PBS (pH6.5) wash buffer containing 0.1% Tween. The peroxidase substrate chromogen, TMB (Dako Cat. No. S1599) was added (100 μl per well) to the ELISA plate and incubated at room temperature. After 5 minutes ELISA Stop Solution (hydrochloric acid 1N, sulfuric acid 3N) was added (100 μl per well) to stop the peroxidase catalyzed colorimetric reaction. The Optical Density of the samples was measured at 450 nm using an ELISA plate reader (BioTek Synergy H1). Following color development, the % inhibition compared to control was determined. IC-50s were calculated using GraphPad Prism software.
The assay was performed as described in Example 49, with the following modifications. Following to coating the plates with human brain membranes, plates were washed as described. The compounds were dissolved in DMSO at 10 mM final concentration and further diluted prior to assay. DMSO concentration in the screening well was up to 2%. Individual compounds were co-incubated with alpha-synuclein on plates coated with brain membranes. Protofibrillar Alpha-synuclein were prepared as described in Example 45. Protofibrillar Alpha-synuclein diluted in PBS (pH 6.5, supplemented with BSA, 0.1%) was added to the ELISA plate (100 μl per well) and incubated for 2 hours at RT with gentle shaking. Following the incubation, the plate was washed with de-ionized water and three times with PBS (pH 6.5) plus Tween. Bound alpha-synuclein was detected by Anti-Alpha-synuclein Monoclonal Antibody 211 (Santa Cruz Cat. No. sc-12767), followed by secondary anti-IgG antibody conjugated to HRP (R&D System, Cat. No. HAF007). Following to color development with TMB, as described in Example 49, the Optical Density of the samples was measured at 450 nm using an ELISA plate reader. […]

| Compound | IC50 [µM] |
| --- | --- |
| Clc1ccc2c(N/N=C/c3ccc(-n4cccn4)cc3)ccnc2c1 [Compound 3, (E)-4-((E)-(4-(1H-pyrazol-1-yl)benzylidene)hydrazono)-7-chloro-1,4-dihydroquinoline] | 7.34 |
| C[N+](C)(C)Cc1ccc(/C=N\Nc2ccnc3ccc(Cl)cc23)cc1 [Compound 4, (Z)-1-(4-((2-(6-chloroquinolin-4-yl)hydrazineylidene)methyl)phenyl)—N,N,N-trimethylmethanaminium iodide] | 10.7 |
| Fc1ccc2c(N/N=C/c3ccc(CN4CCOCC4)cc3)ccnc2c1 [Compound 6, (E)-4-(4-((2-(7-fluoroquinolin-4-yl)hydrazono)methyl)benzyl)morpholine] | 3.36 |
| CN1CCN(Cc2ccc(/C=N/Nc3ccnc4cc(Cl)ccc34)cc2)CC1 [Compound 7, (E)-7-chloro-4-(2-(4-((4-methylpiperazin-1-yl)methyl)benzylidene)hydrazinyl)quinolone] | 42.1 |
| COc1cc2nccc(N/N=C/c3ccc(-n4ccnc4)c(OC)c3)c2cc1OC [Compound 13, (E)-4-(2-(4-(1H-imidazol-1-yl)-3-methoxybenzylidene)hydrazineyl)-6,7-dimethoxyquinoline phosphate] | 4.03 |
| Clc1ccc2c(N/N=C/c3ccc(-n4ccnc4)nc3)ccnc2c1 [Compound 14, (E)-4-(2-((6-(1H-imidazol-1-yl)pyridin-3-yl)methylene)hydrazineyl)-7-chloroquinoline hydrochloride] | 6.51 |
| Cc1ncn(-c2ccc(/C=N\Nc3ncnc4cc(Cl)ccc34)cn2)c1C [Compound 15, 7-chloro-4-(2-((6-(4,5-dimethyl-1H-imidazol-1-yl)pyridin-3-yl)methylene)hydrazineyl)quinazoline hydrochloride] | 3.06 |
| C/C(=N\Nc1ncnc2cc(Cl)ccc12)c1ccc(-n2cnc(C)c2C)nc1 [Compound 16, 7-chloro-4-(2-(1-(6-(4,5-dimethyl-1H-imidazol-1-yl)pyridin-3-yl)ethylidene)hydrazineyl)quinazoline phosphate] | 3.25 |
| C/C(=N\Nc1ncnc2cc(Cl)ccc12)c1ccc(-n2cc[n+](C)c2)nc1 [Compound 17, (E)-1-(5-(1-(2-(7-chloroquinazolin-4-yl)hydrazineylidene)ethyl)pyridin-2-yl)-3-methyl-1H-imidazol-3-ium iodide phosphoric acid salt] | 13.1 |
| CC(=NNc1ccnc2cc(Cl)ccc12)c1ccc(-n2cnc(C)c2C)nc1 [Compound 22, 7-chloro-4-(2-(1-(6-(4,5-dimethyl-1H-imidazol-1-yl)pyridin-3-yl)ethylidene)hydrazineyl)quinoline] | 10.6 |
| C/C(=N\Nc1nncc2cc(Cl)ccc12)c1ccc(-n2cc(C)nc2C)nc1 [Compound 24, (E)-6-chloro-1-(2-(1-(6-(2,4-dimethyl-1H-imidazol-1-yl)pyridin-3-yl)ethylidene)hydrazineyl)phthalazine] | 4.03 |
| Cc1ncn(-c2ccc(Nc3ncnc4cc(Cl)ccc34)cn2)c1C [Compound 25, 7-chloro-N-(6-(4,5-dimethyl-1H-imidazol-1-yl)pyridin-3-yl)quinazolin-4-amine] | 3.4 |
| Clc1ccc2c(Nc3ccc(-n4cncn4)nc3)ncnc2c1 [Compound 34, N-(6-(1H-1,2,4-triazol-1-yl)pyridin-3-yl)-7-chloroquinazolin-4-amine phosphoric acid salt] | 4.38 |
| CC(=NNc1ccnc2cc(Cl)ccc12)c1ccc(-n2ccnc2)cc1 [Compound 36, 4-(2-(1-(4-(1H-imidazol-1-yl)phenyl)ethylidene)hydrazineyl)-7-chloroquinoline phosphate] | 9.46 |
| Clc1ccc2c(N/N=C/c3ccc(-n4ccnc4)cc3)ccnc2c1 [Compound 38, 4-(2-(4-(1H-imidazol-1-yl)benzylidene)hydrazineyl)-7-chloroquinoline dihydrochloride] | 2.79 |
| CCN1CCN(c2ccc(Nc3ccnc4cc5ccccc5cc34)cc2)CC1 [Compound 39, N-(4-(4-ethylpiperazin-1-yl)phenyl)benzo[g]quinolin-4-amine] | 45.8 |
| Cc1ncn(-c2ncc(Nc3ncnc4cc(Cl)ccc34)cc2O)c1C [Compound 40, 5-((7-chloroquinazolin-4-yl)amino)-2-(4,5-dimethyl-1H-imidazol-1-yl)pyridin-3-ol phosphoric acid salt] | 34.5 |
| Clc1ccc2c(Nc3ccc(-n4cncn4)nc3)ccnc2c1 [Compound 44, N-(6-(1H-1,2,4-triazol-1-yl)pyridin-3-yl)-7-chloroquinolin-4-amine] | 22.3 |

Same assay, conditions: alpha-synuclein protofibrils, read-out: Alpha-Synuclein/Membrane Activity (IC-50)

| Compound | IC50 [µM] |
| --- | --- |
| Cc1cc(-n2ccnc2)ccc1/C=N/Nc1ccnc2cc(Cl)ccc12 [Compound 1, (E)-4-((E)-(4-(1H-imidazol-1-yl)-2-methylbenzylidene)hydrazono)-7-chloro-1,4-dihydroquinoline] | 10.1 |
| C/C(=N\Nc1ncnc2cc(Cl)ccc12)c1ccc(-n2cc(C)nc2C)nc1 [Compound 18, (E)-7-chloro-4-(2-(1-(6-(2,4-dimethyl-1H-imidazol-1-yl)pyridin-3-yl)ethylidene)hydrazineyl)quinazoline phosphoric acid salt] | 3.73 |
| C/C(=N\Nc1ncnc2cc(F)ccc12)c1ccc(-n2cnc(C)c2C)nc1 [Compound 21, (E)-4-(2-(1-(6-(4,5-dimethyl-1H-imidazol-1-yl)pyridin-3-yl)ethylidene)hydrazineyl)-7-fluoroquinazoline] | 1.8 |
| C/C(=N\Nc1ncnc2cc(Cl)ccc12)c1ccc(-n2cc(C)nc2C)nc1 [Compound 27, (E)-7-chloro-4-(2-(1-(6-(2,4-dimethyl-1H-imidazol-1-yl)pyridin-3-yl)ethylidene)hydrazineyl)quinazoline hydrochloride] | 7.31 |
| CC(=NNc1ncnc2cc(Cl)ccc12)c1ccnc(-n2cnc(C)c2C)c1 [Compound 28, 7-chloro-4-(2-(1-(2-(4,5-dimethyl-1H-imidazol-1-yl)pyridin-4-yl)ethylidene)hydrazineyl)quinazoline] | 3.17 |
| Clc1ccc2c(Nc3ccc(-n4ccnc4)nc3)ncnc2c1 [Compound 41, N-(6-(1H-imidazol-1-yl)pyridin-3-yl)-7-chloroquinazolin-4-amine] | 5.8 |
